In US20020048549A1, “Radioactive transition metal nitride heterocomplex” (priority 1996, published 2002):
Like-named read-outs stand apart in the source and are kept apart here.

Experiment: Biodistribution of 99mTc(N)(X)(DTC)+ heterocomplexes in rats
Format: in vivo, male Spraque-Dawley rats (SD rats)
Protocol: The biodistribution of a ^99mTc nitride heterocomplex represented by the general formula ^99mTc(N)(X)(Y) was investigated as follows: ^99mTc nitride heterocomplexes were synthesized using DTC as a bidentate ligand Y and each of the diphosphine compounds X described below, and the biodistribution in rats of each heterocomplex was investigated.
Before being injected into rats, the contents of the vial were diluted with phosphate buffer (0.1 mol/dm^3, pH=7.06) containing 10% Tween 80 ([…]). The complexes were stable in the solutions and in human plasma for at least 6 hours.
The biodistribution was measured using male Spraque-Dawley rats (SD rats) weighing 200 to 250 g. After 24 hours fasting, the rats were put under intraperitoneal anesthesia and given an injection in the jugular vein. Then, the organs were excised from the rats at different intervals of time, washed and then weighed. In addition, blood samples were collected and then weighed. The data on the biodistribution are expressed as the mean±significant difference of the percentage of radioactivity level per gram of the organ weight based on the dose of radioactivity, (% dose/g). The measurement was carried out using groups of 5 rats each.

- Bone % dose/g: 0.198 ± 0.03 % dose/g
- Heart % dose/g: 2.704 ± 0.03 % dose/g
- Liver % dose/g: 1.5 ± 0.02 % dose/g
- Spleen % dose/g: 1.686 ± 0.03 % dose/g
- Blood % dose/g (0 min after injection): 1.149 ± 0.04 % dose/g
- Brain % dose/g (0 min after injection): 0.096 ± 0.00 % dose/g
- Intestine % dose/g (0 min after injection): 2.578 ± 0.350 % dose/g
- Kidney % dose/g (0 min after injection): 8.289 ± 0.03 % dose/g
- Lung % dose/g (0 min after injection): 2.133 ± 0.03 % dose/g
- Muscle % dose/g (0 min after injection): 0.232 ± 0.07 % dose/g
- Stomach % dose/g (0 min after injection): 1.121 ± 0.01 % dose/g
- Blood % dose/g (2 min after injection): 0.421 ± 0.10 % dose/g
- Bone % dose/g (2 min after injection): 2.242 ± 0.02 % dose/g
- Brain % dose/g (2 min after injection): 0.035 ± 0.01 % dose/g
- Heart % dose/g (2 min after injection): 3.007 ± 0.16 % dose/g
- Intestine % dose/g (2 min after injection): 4.188 ± 0.60 % dose/g
- Kidney % dose/g (2 min after injection): 9.676 ± 0.620 % dose/g
- Liver % dose/g (2 min after injection): 2.778 ± 0.06 % dose/g
- Lung % dose/g (2 min after injection): 0.995 ± 0.17 % dose/g
- Muscle % dose/g (2 min after injection): 0.264 ± 0.09 % dose/g
- Spleen % dose/g (2 min after injection): 1.215 ± 0.1 % dose/g
- Stomach % dose/g (2 min after injection): 0.740 ± 0.02 % dose/g
- Blood % dose/g (10 min after injection): 0.147 ± 0.02 % dose/g
- Bone % dose/g (10 min after injection): 0.204 ± 0.00 % dose/g
- Brain % dose/g (10 min after injection): 0.019 ± 0.00 % dose/g
- Heart % dose/g (10 min after injection): 2.506 ± 0.10 % dose/g
- Intestine % dose/g (10 min after injection): 10.959 ± 1.64 % dose/g
- Kidney % dose/g (10 min after injection): 6.559 ± 0.928 % dose/g
- Liver % dose/g (10 min after injection): 1.719 ± 0.14 % dose/g
- Lung % dose/g (10 min after injection): 0.725 ± 0.104 % dose/g
- Muscle % dose/g (10 min after injection): 0.252 ± 0.01 % dose/g
- Spleen % dose/g (10 min after injection): 0.856 ± 0.12 % dose/g
- Stomach % dose/g (10 min after injection): 0.852 ± 0.118 % dose/g
- Blood % dose/g (30 min after injection): 0.098 ± 0.01 % dose/g
- Bone % dose/g (30 min after injection): 0.230 ± 0.04 % dose/g
- Brain % dose/g (30 min after injection): 0.012 ± 0.00 % dose/g
- Heart % dose/g (30 min after injection): 2.551 ± 0.10 % dose/g
- Intestine % dose/g (30 min after injection): 10.201 ± 1.28 % dose/g
- Kidney % dose/g (30 min after injection): 5.354 ± 1.00 % dose/g
- Liver % dose/g (30 min after injection): 0.732 ± 0.08 % dose/g
- Lung % dose/g (30 min after injection): 0.446 ± 0.00 % dose/g
- Muscle % dose/g (30 min after injection): 0.273 ± 0.05 % dose/g
- Spleen % dose/g (30 min after injection): 0.550 ± 0.06 % dose/g
- Stomach % dose/g (30 min after injection): 1.511 ± 0.39 % dose/g
- Blood % dose/g (1 hr after injection): 0.071 ± 0.00 % dose/g
- Bone % dose/g (1 hr after injection): 0.099 ± 0.00 % dose/g
- Brain % dose/g (1 hr after injection): 0.014 ± 0.00 % dose/g
- Heart % dose/g (1 hr after injection): 2.155 ± 0.29 % dose/g
- Intestine % dose/g (1 hr after injection): 5.447 ± 0.87 % dose/g
- Kidney % dose/g (1 hr after injection): 4.127 ± 0.178 % dose/g
- Liver % dose/g (1 hr after injection): 0.500 ± 0.01 % dose/g
- Lung % dose/g (1 hr after injection): 0.329 ± 0.05 % dose/g
- Muscle % dose/g (1 hr after injection): 0.236 ± 0.04 % dose/g
- Spleen % dose/g (1 hr after injection): 0.238 ± 0.02 % dose/g
- Stomach % dose/g (1 hr after injection): 0.892 ± 0.085 % dose/g
- Blood % dose/g (2 hr after injection): 0.049 ± 0.00 % dose/g
- Bone % dose/g (2 hr after injection): 0.121 ± 0.00 % dose/g
- Brain % dose/g (2 hr after injection): 0.009 ± 0.00 % dose/g
- Heart % dose/g (2 hr after injection): 2.721 ± 0.06 % dose/g
- Intestine % dose/g (2 hr after injection): 2.720 ± 0.11 % dose/g
- Kidney % dose/g (2 hr after injection): 3.139 ± 0.20 % dose/g
- Liver % dose/g (2 hr after injection): 0.164 ± 0.04 % dose/g
- Lung % dose/g (2 hr after injection): 0.312 ± 0.2 % dose/g
- Muscle % dose/g (2 hr after injection): 0.268 ± 0.88 % dose/g
- Spleen % dose/g (2 hr after injection): 0.300 ± 0.05 % dose/g
- Stomach % dose/g (2 hr after injection): 1.521 ± 0.50 % dose/g
- Blood % dose/g (4 hr after injection): 0.030 ± 0.00 % dose/g
- Bone % dose/g (4 hr after injection): 0.079 ± 0.01 % dose/g
- Brain % dose/g (4 hr after injection): 0.009 ± 0.00 % dose/g
- Heart % dose/g (4 hr after injection): 2.503 ± 0.13 % dose/g
- Intestine % dose/g (4 hr after injection): 1.810 ± 0.716 % dose/g
- Kidney % dose/g (4 hr after injection): 2.536 ± 0.12 % dose/g
- Liver % dose/g (4 hr after injection): 0.155 ± 0.00 % dose/g
- Lung % dose/g (4 hr after injection): 0.219 ± 0.01 % dose/g
- Muscle % dose/g (4 hr after injection): 0.245 ± 0.031 % dose/g
- Spleen % dose/g (4 hr after injection): 0.195 ± 0.02 % dose/g
- Stomach % dose/g (4 hr after injection): 0.485 ± 0.07 % dose/g
- elimination from kidney and liver (rats): relatively rapidly eliminated
- washout from lung and blood (rats): rapidly washed out
- accumulation in heart (rats, throughout the measurement): very large amount
SMILES: COCCC[P]1(CCCOC)CCN(CCOC)CC[P](CCCOC)(CCCOC)[99Tc+]12(#[N])[NH]N(C)C(SC)=[S]2 [^99mTc(N)(PNP3)(DTC)^+]
